Consider 30 compounds from patent US10112944B2, “Heterocyclic compounds useful as inhibitors of TNF” (BRISTOL-MYERS SQUIBB COMPANY, priority 2015, dated 2018).

The structures appear in SMILES notation.

Sequence of TNFα (P01375 77-233): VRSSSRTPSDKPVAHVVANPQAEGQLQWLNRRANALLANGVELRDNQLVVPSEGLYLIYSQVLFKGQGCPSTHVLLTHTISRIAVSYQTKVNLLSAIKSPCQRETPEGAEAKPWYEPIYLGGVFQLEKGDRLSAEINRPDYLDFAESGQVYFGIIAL

The assay has as its target TNFα (Homo sapiens (Human), UniProt P01375). The assay can be described thus: TNF induced HEK-Blue assay. It is filed as cell-based. To be noted: HEK-Blue-CD40L cells, TNFα 0.5 ng/ml, NF-κB-driven secreted alkaline phosphatase reporter, 18 h. On the procedure:
TNF or CD40L-Induced HEK-Blue Assay
Test compounds serially diluted in DMSO were plated in an assay plate (Labcyte, Cat. #LP-0200) at final concentrations ranging from 0.004 μM to 25 μM. TNFα (final concentration 0.5 ng/ml) or CD40L (final concentration 30 ng/ml) in assay buffer [DMEM, 4.5 g/l glucose (Gibco, Cat. 21063-029), 10% FBS (Sigma, F4135), 1% Penicillin-Streptomycin (Gibco, Cat. 15140-122), 1% Anti-Anti (Gibco, Cat. 15240-112) and 2 mM L-glutamine (Gibco, Cat. 25030-081)] was then added to the assay plate. After a 30 minute pre-incubation at 37° C. and 5% CO2, HEK-Blue-CD40L cells (InvivoGen, Cat. Code hkb-cd40) containing a NF-κB-driven secreted alkaline phosphatase reporter gene were seeded into the assay plate at a density of 20,000 cells per well. This plate was then incubated for 18 h at 37° C. and 5% CO2. Secreted alkaline phosphatase expression was measured using QUANTI-Blue (InvivoGen, Cat. Code rep-qbl) according to manufacturer's specifications and the assay plate was read on a PerkinElmer Envision at 620 nm.
Inhibition data for the test compound over a range of concentrations was plotted as percentage inhibition of the test compound (100%=maximum inhibition). IC50 values were determined after correcting for background [(sample read−mean of low control)/(mean of high control−mean of low control)] where by the low control is DMSO without stimulation and high control is DMSO with stimulation. The IC50 is defined as the concentration of test compound which produces 50% inhibition and was quantified using the 4 parameter logistic equation to fit the data.
On to `COc1ccc(-c2cn3c4c(nc3cc2C)CCCN4c2cc(C)ccc2C)cn1` [Example 1, 1-(2,5-Dimethylphenyl)-8-(6-methoxypyridin-3-yl)-7-methyl-1,2,3,4-tetrahydroimidazo [1,2-a:5,4-b′]dipyridine], for which the IC50 (as a rule, the concentration that gives 50% inhibition) lay in the range of 1 to 10 µM. The same measure for `COc1ccc(-c2cn3c4c(nc3cc2C)CCCN4c2ccccc2OC(F)F)cn1` [Example 2, 1-(2-(Difluoromethoxy)phenyl)-8-(6-methoxypyridin-3-yl)-7-methyl-1,2,3,4-tetrahydroimidazo[1,2-a:5,4-b′]dipyridine]: less than 1 µM; for `Cc1ccc(C)c(N2CCCc3nc4cc(C)c(-c5cnn(C)c5)cn4c32)c1` [Example 3, 1-(2,5-Dimethylphenyl)-7-methyl-8-(1-methyl-1H-pyrazol-4-yl)-1,2,3,4-tetrahydroimidazo[1,2-a:5,4-b′]dipyridine]: less than 1 µM; for `Cc1cc2nc3c(n2cc1-c1cnn(C)c1)N(c1ccccc1OC(F)F)CCC3` [Example 4, 1-(2-(Difluoromethoxy)phenyl)-7-methyl-8-(1-methyl-1H-pyrazol-4-yl)-1,2,3,4-tetrahydroimidazo[1,2-a:5,4-b′]dipyridine]: 1 to 10 µM. With `COc1ccc(-c2ccc3nc4c(n3c2)N(c2cc(C)ccc2C)CCC4)cn1` [Example 5, 1-(2,5-Dimethylphenyl)-8-(6-methoxypyridin-3-yl)-1,2,3,4-tetrahydroimidazo [1,2-a:5,4-b′]dipyridine] the figure was less than 1 µM; with `COc1ccc(-c2ccc3nc4c(n3c2)N(c2ccccc2OC(F)F)CCC4)cn1` [Example 6, 1-(2-(Difluoromethoxy)phenyl)-8-(6-methoxypyridin-3-yl)-1,2,3,4-tetrahydroimidazo[1,2-a:5,4-b′]dipyridine], less than 1 µM.

`COc1ccc(-c2ccc3nc4c(n3c2)N(c2cc(C)ccc2OC)CCC4)cn1` [Example 7, 1-(2-Methoxy-5-methylphenyl)-8-(6-methoxypyridin-3-yl)-1,2,3,4-tetrahydroimidazo [1,2-a:5,4-b′]dipyridine] gave an IC50 of less than 1 µM. The same measure for `COc1ccc(-c2ccc3nc4c(n3c2)N(c2nccc3ccccc23)CCC4)cn1` [Example 8, 1-(Isoquinolin-1-yl)-8-(6-methoxypyridin-3-yl)-1,2,3,4-tetrahydroimidazo [1,2-a:5,4-b′]dipyridine]: 1 to 10 µM; for `COc1ccc(-c2ccc3nc4c(n3c2)N(c2ccccc2C)CCC4)cn1` [Example 9, 8-(6-Methoxypyridin-3-yl)-1-(o-tolyl)-1,2,3,4-tetrahydroimidazo[1,2-a:5,4-b′]dipyridine]: less than 1 µM. Turning to `COc1ccc(-c2ccc3nc4c(n3c2)N(c2ccccc2OC(F)(F)F)CCC4)cn1` [Example 10, 8-(6-Methoxypyridin-3-yl)-1-(2-(trifluoromethoxy)phenyl)-1,2,3,4-tetrahydroimidazo[1,2-a:5,4-b′]dipyridine], the IC50 is less than 1 µM. The same measure for `COc1ccc(-c2ccc3nc4c(n3c2)N(c2cc(C(F)(F)F)ccc2C)CCC4)cn1` [Example 11, 8-(6-Methoxypyridin-3-yl)-1-(2-methyl-5-(trifluoromethyl)phenyl)-1,2,3,4-tetrahydroimidazo[1,2-a:5,4-b′]dipyridine]: 1 to 10 µM. With `Cc1ccc(C)c(N2CCCc3nc4ccc(-c5cnn(C)c5)cn4c32)c1` [Example 12, 1-(2,5-Dimethylphenyl)-8-(1-methyl-1H-pyrazol-4-yl)-1,2,3,4-tetrahydroimidazo [1,2-a:5,4-b′]dipyridine] the figure was less than 1 µM; with `Cn1cc(-c2ccc3nc4c(n3c2)N(c2ccccc2OC(F)F)CCC4)cn1` [Example 13, 1-(2-(Difluoromethoxy)phenyl)-8-(1-methyl-1H-pyrazol-4-yl)-1,2,3,4-tetrahydroimidazo[1,2-a:5,4-b′]dipyridine], less than 1 µM. `Cc1ccc(C)c(N2CCCc3nc4ccc(-c5cnc(N6CCOCC6)nc5)cn4c32)c1` [Example 14, 4-(5-(1-(2,5-Dimethylphenyl)-1,2,3,4-tetrahydroimidazo[1,2-a:5,4-b′]dipyridin-8-yl)pyrimidin-2-yl)morpholine] showed an IC50 of less than 1 µM. The same measure for `FC(F)Oc1ccccc1N1CCCc2nc3ccc(-c4cnc(N5CCOCC5)nc4)cn3c21` [Example 15, 4-(5-(1-(2-(Difluoromethoxy)phenyl)-1,2,3,4-tetrahydroimidazo[1,2-a:5,4-b′]dipyridin-8-yl)pyrimidin-2-yl)morpholine]: less than 1 µM; for `Cc1ccc(C)c(N2CCCc3nc4ccc(-c5ccc(-c6nnc(C)o6)cc5)cn4c32)c1` [Example 16, 2-(4-(1-(2,5-Dimethylphenyl)-1,2,3,4-tetrahydroimidazo[1,2-a:5,4-b′]dipyridin-8-yl)phenyl)-5-methyl-1,3,4-oxadiazole]: less than 1 µM.

Regarding `Cc1nnc(-c2ccc(-c3ccc4nc5c(n4c3)N(c3ccccc3OC(F)F)CCC5)cc2)o1` [Example 17, 2-(4-(1-(2-(Difluoromethoxy)phenyl)-1,2,3,4-tetrahydroimidazo[1,2-a:5,4-b′]dipyridin-8-yl)phenyl)-5-methyl-1,3,4-oxadiazole], the IC50 is less than 1 µM. `Cc1ccc(C)c(N2CCCc3nc4ccc(-c5cnc(C(C)(C)O)nc5)cn4c32)c1` [Example 18, 2-(5-(1-(2,5-Dimethylphenyl)-1,2,3,4-tetrahydroimidazo[1,2-a:5,4-b′]dipyridin-8-yl)pyrimidin-2-yl)propan-2-ol] registered an IC50 of less than 1 µM.

As for `Cc1ccc(OC(F)F)c(N2CCCc3nc4ccc(-c5cnc(N6CCOCC6)nc5)cn4c32)c1` [Example 19, 4-(5-(1-(2-(Difluoromethoxy)-5-methylphenyl)-1,2,3,4-tetrahydroimidazo [1,2-a:5,4-b′]dipyridin-8-yl)pyrimidin-2-yl)morpholine], the IC50 was less than 1 µM. With `COc1ccc(-c2ccc3nc4c(n3c2)N(c2cc(C)ccc2OC(F)F)CCC4)cn1` [Example 20, 1-(2-(Difluoromethoxy)-5-methylphenyl)-8-(6-methoxypyridin-3-yl)-1,2,3,4-tetrahydroimidazo[1,2-a:5,4-b′]dipyridine] the figure was less than 1 µM. The compound `CC(C)(O)c1ncc(-c2cn3c4c(nc3cc2Cl)CCCN4c2ccccc2)cn1` [Example 21, 2-(5-(7-Chloro-1-phenyl-1,2,3,4-tetrahydroimidazo[1,2-a:5,4-b′]dipyridin-8-yl)pyrimidin-2-yl)propan-2-ol] displayed a half-maximal inhibitory concentration (IC50) of less than 1 µM. In the case of `COc1ccc(-c2cn3c4c(nc3cc2Cl)CCCN4c2ccccc2OC(F)F)cn1` [Example 22, 7-Chloro-1-(2-(difluoromethoxy)phenyl)-8-(6-methoxypyridin-3-yl)-1,2,3,4-tetrahydroimidazo[1,2-a:5,4-b′]dipyridine], the IC50 fell in the range of 1 to 10 µM. The compound `COc1ccc(-c2cn3c4c(nc3cc2Cl)CCCN4c2cc(C)ccc2C)cn1` [Example 23, 7-Chloro-1-(2,5-dimethylphenyl)-8-(6-methoxypyridin-3-yl)-1,2,3,4-tetrahydroimidazo[1,2-a:5,4-b′]dipyridine] returned an IC50 of 1 to 10 µM. With `COc1ccc(-c2ccc3nc4c(n3c2)N(c2cccc(C)c2C)CCC4)cn1` [Example 24, 1-(2,3-Dimethylphenyl)-8-(6-methoxypyridin-3-yl)-1,2,3,4-tetrahydroimidazo [1,2-a:5,4-b′]dipyridine] the figure was 1 to 10 µM. With `COc1ccc(-c2ccc3nc4c(n3c2)N(c2cc(F)ccc2C)CCC4)cn1` [Example 25, 1-(5-Fluoro-2-methylphenyl)-8-(6-methoxypyridin-3-yl)-1,2,3,4-tetrahydroimidazo [1,2-a:5,4-b′]dipyridine] the figure was less than 1 µM.

On to `COc1ccc(-c2ccc3nc4c(n3c2)N(c2ccc(F)cc2C)CCC4)cn1` [Example 26, 1-(4-Fluoro-2-methylphenyl)-8-(6-methoxypyridin-3-yl)-1,2,3,4-tetrahydroimidazo [1,2-a:5,4-b′]dipyridine], for which the IC50 was less than 1 µM. On to `CCc1ccccc1N1CCCc2nc3ccc(-c4ccc(OC)nc4)cn3c21` [Example 28, 1-(2-Ethylphenyl)-8-(6-methoxypyridin-3-yl)-1,2,3,4-tetrahydroimidazo [1,2-a:5,4-b′]dipyridine], for which the IC50 is less than 1 µM.

`COc1ccc(-c2ccc3nc4c(n3c2)N(c2ccc(C)cc2C)CCC4)cn1` [Example 30, 1-(2,4-Dimethylphenyl)-8-(6-methoxypyridin-3-yl)-1,2,3,4-tetrahydroimidazo[1,2-a:5,4-b′]dipyridine]: the IC50 was in the range of 1 to 10 µM. With `COc1ccc(-c2ccc3nc4c(n3c2)N(c2ccccc2Cl)CCC4)cn1` [Example 31, 1-(2-Chlorophenyl)-8-(6-methoxypyridin-3-yl)-1,2,3,4-tetrahydroimidazo[1,2-a:5,4-b′]dipyridine] the figure was less than 1 µM; with `COc1ccc(-c2ccc3nc4c(n3c2)N(c2cc(Cl)ccc2C)CCC4)cn1` [Example 32, 1-(5-Chloro-2-methylphenyl)-8-(6-methoxypyridin-3-yl)-1,2,3,4-tetrahydroimidazo[1,2-a:5,4-b′]dipyridine], less than 1 µM.
